Measurements from patent publication US20170035742A1, “DURABLE TREATMENT WITH 4-AMINOPYRIDINE IN PATIENTS WITH DEMYELINATION” (Acorda Therapeutics, Inc., priority 2009, published 2017).

How the values were obtained:
Plasma protein binding = assay type: in vitro ADME; conditions: human
Text: Measurable levels are present in the saliva.

[1] = Single- and repeated-dose toxicity studies; assay type: in vivo; conditions: after large single doses or repeated lower doses, all species studied
Text: In single- and repeated-dose toxicity studies, the dosing regimen greatly affected the rate of side effects. […] These clinical signs were not unexpected and represent exaggerated pharmacology of 4-aminopyridine.

[2] = Adverse events in controlled clinical studies; assay type: in vivo, human
Text: In controlled clinical studies involving the use of 4-aminopyridine, the most frequent adverse events by body system occurred in the nervous system, “body as a whole”, and digestive system.
While an increased incidence of such events appears to be moderately dose-related, the susceptibility of individuals is quite variable. As a result of disease pathology, there appears to be potential for more lowering of seizure threshold in people with MS than for people with spinal cord injury; this may result from interaction of the channel-blocking properties of the drug with MS brain pathology in certain individuals.

[3] = tested on: patients with multiple sclerosis; test: MS-F203EXT open-label extension study; conditions: over two years open-label
Method: This extension study (MS-F203EXT) monitored efficacy and safety during open-label treatment of patients from MS-F203. Design/methods: Patients were treated with 10 mg fampridine bid, and were assessed in the clinic at 2, 14, and 26 weeks and every 6 months thereafter. Eligibility criteria included: definite MS; age 18-70; Timed 25-Foot Walk (T25FW) times of 8-45 seconds at screening for MS-F203. Efficacy was analyzed by the proportion of Extension Timed Walk Responders (ETWRs) whose walking was faster during the majority of visits than their fastest off-treatment speed.
MS-F203EXT monitored efficacy and safety during open-label treatment of patients from MS-F203. Patients were treated with 10 mg fampridine bid, and were assessed in the clinic at 2, 14, and 26 weeks and every 6 months thereafter. Eligibility criteria included: definite MS; age 18-70; Timed 25-Foot Walk (T25FW) times of 8-45 seconds at screening for MS-F203. Efficacy was analyzed by the proportion of Extension Timed Walk Responders (ETWRs) whose walking was faster during the majority of visits than their fastest off-treatment speed. […] There are safety assessments, a timed 25 Foot Walk assessment, Clinician and Subject Global Impression at each visit. An EDSS assessment is performed every 2 years.
Timed walk response in the extension study was measured using the Timed 25-Foot Walk (T25W). […]

[4] = Rat i.v. and p.o. pharmacokinetics, 2 mg/kg (M 2001-03); conditions: AUC(0-∞) p.o. vs i.v.
[5] = Tissue distribution of 14C-labeled 4-aminopyridine 1 mg/kg p.o. in rats; conditions: one hour post-dose
Method: In a single-dose study, rats were administered ^14C-labeled 4-aminopyridine (1 mg/kg) p.o. Three animals per time point were sacrificed 1, 3, 8, and 24 hours post-dose. Blood was collected and tissues were excised for determination of radioactivity.

Compound | unbound to plasma proteins (Plasma protein binding) | clinical signs [1] | most common nervous system adverse events [2] | most frequently reported event in the digestive system category [2] | safety profile [3] | bioavailability ([4]; female rats) [%] | bioavailability ([4]; male rats) | dose accounted for in total [5] [%] | radioactivity in blood, percent of dose [5] [%] | radioactivity in kidney, percent of dose [5] [%] | radioactivity in liver, percent of dose [5] [%]
Nc1ccncc1 [4-aminopyridine] | 97-99% | tremors, convulsions, ataxia, dyspnea, dilated pupils, prostration, abnormal vocalization, increased respiration, excess salivation, gait abnormalities, and hyper- and hypo-excitability | Dizziness, insomnia, paresthesia, pain, headache and asthenia | nausea | No new safety issues emerged | ~55 | approximately 66.5% | – | – | – | –
^14C-4-Aminopyridine | – | – | – | – | – | – | – | 58.3 | 0.7 | 1.6 | 2.6
